Test results published in patent EP0800503B1, “NOVEL TRIENOIC RETINOID COMPOUNDS AND METHODS” (LIGAND PHARMACEUTICALS, INC., priority 1994, dated 1996).
pEC50, pIC50, pKd: −log10 of the molar value. Like-named read-outs stand apart in the source and are kept apart here.

How the values were obtained:
TPA induction of ODC = test: Ornithine decarboxylase (ODC) assay, inhibition of TPA induction of ODC; type: cell-based; conditions: concentration required to inhibit the TPA induction of ODC by 80 percent
RARα [1] = target: T1, RARα (Homo sapiens, UniProt P10276); test: Receptor binding (competition with tritiated retinoids); conditions: from IC50 by Cheng-Prussof equation
T1 sequence (P10276 1-462): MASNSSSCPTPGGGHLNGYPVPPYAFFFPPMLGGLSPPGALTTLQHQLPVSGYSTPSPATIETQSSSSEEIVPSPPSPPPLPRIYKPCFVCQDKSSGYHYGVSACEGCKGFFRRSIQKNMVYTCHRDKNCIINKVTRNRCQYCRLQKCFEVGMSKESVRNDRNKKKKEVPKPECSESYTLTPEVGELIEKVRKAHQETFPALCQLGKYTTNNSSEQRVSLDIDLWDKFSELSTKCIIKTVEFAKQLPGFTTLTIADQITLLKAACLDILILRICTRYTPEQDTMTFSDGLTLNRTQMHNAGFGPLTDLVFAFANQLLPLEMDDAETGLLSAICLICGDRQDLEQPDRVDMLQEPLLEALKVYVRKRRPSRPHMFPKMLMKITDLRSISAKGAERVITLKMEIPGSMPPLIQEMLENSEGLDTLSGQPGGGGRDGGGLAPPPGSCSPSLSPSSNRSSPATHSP

RXRγ [2] = target: T2, RXRγ (Mus musculus, UniProt P28705); test: biochemical
T2 sequence (P28705 1-463): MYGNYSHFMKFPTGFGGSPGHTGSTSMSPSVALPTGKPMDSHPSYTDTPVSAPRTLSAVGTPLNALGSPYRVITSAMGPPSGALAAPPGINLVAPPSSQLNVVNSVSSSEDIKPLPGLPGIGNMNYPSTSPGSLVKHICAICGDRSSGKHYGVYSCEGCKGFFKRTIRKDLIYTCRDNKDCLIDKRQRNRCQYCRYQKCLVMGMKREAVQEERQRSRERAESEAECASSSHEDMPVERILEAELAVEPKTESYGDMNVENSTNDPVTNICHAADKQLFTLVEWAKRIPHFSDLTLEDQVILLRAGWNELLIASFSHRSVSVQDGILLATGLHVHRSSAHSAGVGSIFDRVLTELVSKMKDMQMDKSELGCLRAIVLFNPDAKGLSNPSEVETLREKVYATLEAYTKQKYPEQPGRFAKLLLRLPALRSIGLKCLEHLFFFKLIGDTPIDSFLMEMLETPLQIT

RARβ [3] = target: T3, RARβ (Homo sapiens, UniProt P10826); test: Co-transfection assay; type: cell-based; conditions: read-out: RARβ Pot
T3 sequence (P10826 1-448 isoform P10826-2): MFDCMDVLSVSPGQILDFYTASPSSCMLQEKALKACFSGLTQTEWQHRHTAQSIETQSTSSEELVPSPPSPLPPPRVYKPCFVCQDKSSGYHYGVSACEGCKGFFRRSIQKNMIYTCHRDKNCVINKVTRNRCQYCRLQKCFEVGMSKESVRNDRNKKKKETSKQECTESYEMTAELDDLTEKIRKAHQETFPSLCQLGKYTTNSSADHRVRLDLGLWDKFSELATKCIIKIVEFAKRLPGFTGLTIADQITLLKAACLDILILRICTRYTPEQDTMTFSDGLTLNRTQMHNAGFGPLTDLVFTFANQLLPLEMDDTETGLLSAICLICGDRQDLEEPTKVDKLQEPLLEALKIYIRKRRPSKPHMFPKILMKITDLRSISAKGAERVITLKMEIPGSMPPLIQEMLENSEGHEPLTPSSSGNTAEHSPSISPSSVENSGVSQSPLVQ

RXRα [4] = target: T4, RXRα (Homo sapiens, UniProt P19793); test: Receptor binding (competition with tritiated retinoids); conditions: from IC50 by Cheng-Prussof equation
T4 sequence (P19793 1-462): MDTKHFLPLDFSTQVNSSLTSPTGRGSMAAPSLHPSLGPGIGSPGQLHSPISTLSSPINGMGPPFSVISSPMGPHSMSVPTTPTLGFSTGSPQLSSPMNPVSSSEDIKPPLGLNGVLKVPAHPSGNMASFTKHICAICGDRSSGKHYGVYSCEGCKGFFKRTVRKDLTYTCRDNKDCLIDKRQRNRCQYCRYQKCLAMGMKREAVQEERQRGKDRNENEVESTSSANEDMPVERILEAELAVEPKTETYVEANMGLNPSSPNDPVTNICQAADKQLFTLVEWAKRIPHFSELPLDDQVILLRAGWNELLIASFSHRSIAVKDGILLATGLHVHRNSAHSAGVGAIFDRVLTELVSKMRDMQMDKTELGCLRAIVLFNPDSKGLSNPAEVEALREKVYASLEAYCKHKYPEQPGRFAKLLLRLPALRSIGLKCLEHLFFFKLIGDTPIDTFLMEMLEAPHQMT

ME 180 cell line [5] = test: Viability (tetrazolium dye, MTS); type: cell-based; conditions: Homo sapiens, 96 hours, mitochondrial function / viability
RXRγ [6] = target: T2, RXRγ; test: Co-transfection assay; type: cell-based; conditions: read-out: RXRγ Pot
RARβ [7] = target: T5, RARβ (Homo sapiens, UniProt P10826); test: biochemical
T5 sequence (P10826 1-455): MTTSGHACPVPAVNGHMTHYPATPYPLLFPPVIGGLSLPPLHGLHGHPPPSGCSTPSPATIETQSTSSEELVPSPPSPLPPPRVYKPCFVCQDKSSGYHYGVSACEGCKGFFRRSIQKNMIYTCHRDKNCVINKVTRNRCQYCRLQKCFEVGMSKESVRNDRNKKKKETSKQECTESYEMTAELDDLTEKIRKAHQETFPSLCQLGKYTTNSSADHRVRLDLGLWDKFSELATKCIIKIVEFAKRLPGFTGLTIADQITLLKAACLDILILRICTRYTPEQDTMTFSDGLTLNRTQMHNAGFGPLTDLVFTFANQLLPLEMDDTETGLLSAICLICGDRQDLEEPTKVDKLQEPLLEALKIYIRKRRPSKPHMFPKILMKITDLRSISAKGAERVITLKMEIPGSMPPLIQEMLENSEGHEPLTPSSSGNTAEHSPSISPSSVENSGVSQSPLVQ

RPMI 8226 cell line [8] = test: Viability (tetrazolium dye, MTS); type: cell-based; conditions: Homo sapiens, 96 hours, mitochondrial function / viability
AML-193 cell line [9] = test: Viability (tetrazolium dye, MTS); type: cell-based; conditions: Homo sapiens, 96 hours, mitochondrial function / viability
RPMI 8226 cell line [10] = test: Incorporation of 3H-thymidine; type: cell-based; conditions: Homo sapiens, 96 hours, radiolabeled thymidine incorporation, read-out: TdR IC50
RXRα [11] = target: T4, RXRα; test: Co-transfection assay; type: cell-based; conditions: read-out: RXRα Pot
ME 180 cell line [12] = test: Incorporation of 3H-thymidine; type: cell-based; conditions: Homo sapiens, 96 hours, radiolabeled thymidine incorporation, read-out: TdR IC50
AML-193 cell line [13] = test: Incorporation of 3H-thymidine; conditions: Homo sapiens, 96 h, read-out: TdR IC50 (nM)
RARα [14] = target: T1, RARα; test: Co-transfection assay; type: cell-based; conditions: read-out: RARα Pot

Row | pKd (RARα [1]) | pKd (RXRγ [2]) | pEC50 (RARβ [3]) | pKd (RXRα [4]) | pEC50 (RXRγ [6]) | pKd (RARβ [7]) | pIC50 (RPMI 8226 cell line [10]) | pEC50 (RXRα [11]) | pIC50 (ME 180 cell line [12]) | IC50 (AML-193 cell line [13]) | pEC50 (RARα [14]; CV-1 cells, pRShRARα, D-MTV-LUC reporter, 40 hours, potency = EC50) | pEC50 (RARα [14]) | SMILES | IC80 (TPA induction of ODC) | pIC50 (ME 180 cell line [5]) | pIC50 (RPMI 8226 cell line [8]) | pIC50 (AML-193 cell line [9])
1 | 9.00 | 6.30 | 9.00 | 6.57 | < 5.00 | 8.70 | 9.52 | < 5.00 | 10.00 | 0.1 nM | 8.40 | – | CC(/C=C/C=C(\C)c1cc(C(C)(C)C)cc(C(C)(C)C)c1)=C\C(=O)O [Compound 9, (2E, 4E, 6E)-7-(3,5-Di-t-butylphenyl)-3-methylocta-2,4,6-trienoic acid] | 0.93 nM | 8.89 | 6.60 | 6.00
2 | 7.23 | 8.05 | 7.64 | 8.40 | 7.25 | 7.12 | 7.22 | 6.90 | 7.21 | 0.01 nM | – | 7.23 | C/C(=C/C=C/C(C)=C/C(=O)O)c1cc(C(C)(C)C)cc(C(C)(C)C)c1 [Compound 10, (2E, 4E, 6Z)-7-(3,5-di-t-butylphenyl)-3-methylocta-2,4,6-trienoic acid] | 6.62 nM | 6.43 | 6.24 | 6.00
3 | – | – | – | – | – | – | 9.70 | – | 9.40 | 0.1 nM | – | – | C/C(=C\c1ccc(C(=O)O)cc1)c1ccc2c(c1)C(C)(C)CCC2(C)C [TTNPB, (E)-4-[2-(5,6,7,8-tetrahydro-5,5,8,8-tetramethyl-2-napthalenyl)-1-propenyl]benzoic acid, reference compound] | 0.09 nM | 6.73 | 8.00 | 6.00
